Experimental data as given in US20240252488A1 (KOREA RESEARCH INSTITUTE OF CHEMICAL TECHNOLOGY, priority 2020, published 2024).

Experiments:
MLKL [1] = biological target: T1, MLKL (Homo sapiens, UniProt Q8NB16); test: MLKL degradation assay in HepG2 cell line (western blot); assay type: cell-based; design: endogenous in cells; host or cells: HepG2 or HaCaT; conditions: cell line not given; for Degradation assay (Degradation %) 1 μM: compound 1 μM; for Degradation assay (Degradation %) 10 μM: compound 10 μM
T1 sequence (Q8NB16 1-471): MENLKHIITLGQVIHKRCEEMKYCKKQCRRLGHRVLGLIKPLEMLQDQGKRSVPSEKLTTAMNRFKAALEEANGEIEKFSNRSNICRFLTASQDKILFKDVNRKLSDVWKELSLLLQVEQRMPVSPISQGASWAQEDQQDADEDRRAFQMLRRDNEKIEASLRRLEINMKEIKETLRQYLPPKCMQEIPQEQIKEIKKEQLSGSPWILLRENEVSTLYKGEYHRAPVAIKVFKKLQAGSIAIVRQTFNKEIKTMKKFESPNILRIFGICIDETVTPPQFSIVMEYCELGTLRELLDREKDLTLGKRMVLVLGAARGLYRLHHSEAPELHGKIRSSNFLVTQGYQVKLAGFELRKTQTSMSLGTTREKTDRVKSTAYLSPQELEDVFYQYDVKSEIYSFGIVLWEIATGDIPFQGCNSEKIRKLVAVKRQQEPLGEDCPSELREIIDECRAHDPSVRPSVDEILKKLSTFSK
Method in brief: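 After treating HepG2 with test compounds (final 1 μM or 10 μM) for 20-24 h, we lysed cells, equalized protein by BCA and probed MLKL by overnight primary antibody at 4 °C followed by chemiluminescent detection.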

FADD−/− Jurkat cells = test: Necroptosis inhibition assay, TNF-α-induced necroptosis (CellTiter-Glo 2.0); assay type: cell-based, human; conditions: TNF-α 15 ng/mL; for Necroptosis inhibition assay (Rescue %) 1 μM: compound 1 μM; for Necroptosis inhibition assay (Rescue %) 10 μM: compound 10 μM
Method in brief: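 Necroptosis was triggered by TNF-α at 15 ng/mL final following 30 minutes of compound exposure (0.1, 1 or 10 μM final). Incubation ran 20 to 24 hours at 37° C under 5% CO2; cell ATP was then quantified by luminescence.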

MLKL [2] = biological target: T1, MLKL; test: Measurement of binding affinity with MLKL receptor (competitive binding assay, Kd); design: made in house; host or cells: HEK 293 cell line (T7 phage in E. coli BL21-derived host is also described)
Method in brief: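 Kd comes from a bead-based competition format: compound-dependent loss of DNA-tagged, HEK 293-expressed MLKL capture, measured as eluate kinase by qPCR. Final DMSO is 0.9%.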

## Nc1ncc(-c2cnn(C3CCN(CCC4CCN(C(=O)C5CCN(c6cccc7c6C(=O)N(C6CCC(=O)NC6=O)C7=O)CC5)CC4)CC3)c2)nc1C(=O)O[C@@H](C(=O)Nc1ccc(F)cc1)c1ccccc1 (stereo partly drawn) [TDH-196, (R)-2-((4-fluorophenyl)amino)-2-oxo-1-phenylethyl 3-amino-6-(1-(1-(2-(1-(1-(2-(2,6-dioxopiperidin-3-yl)-1,3-dioxoisoindolin-4-yl)piperidine-4-carbonyl)piperidin-4-yl)ethyl)piperidin-4-yl)-1H-pyrazol-4-yl)pyrazine-2-carboxylate]
MLKL [1]
  Degradation assay (Degradation %) 1 μM: 62.01%
  Degradation assay (Degradation %) 10 μM: 51.12%
FADD−/− Jurkat cells
  Necroptosis inhibition assay (Rescue %) 1 μM: 60.75%
  Necroptosis inhibition assay (Rescue %) 10 μM: 34%
MLKL [2]
  Kd: 0.97 nM

## Nc1ncc(-c2cnn(C3CCN(CCCN4CCN(C(=O)C5CCN(c6ccc7c(c6)C(=O)N(C6CCC(=O)NC6=O)C7=O)CC5)CC4)CC3)c2)nc1C(=O)OC(C(=O)Nc1ccc(F)cc1)c1ccccc1 (centres unmarked) [TDH-240, 2-((4-fluorophenyl)amino)-2-oxo-1-phenylethyl 3-amino-6-(1-(1-(3-(4-(1-(2-(2,6-dioxopiperidin-3-yl)-1,3-dioxoisoindolin-5-yl)piperidine-4-carbonyl)piperazin-1-yl)propyl)piperidin-4-yl)-1H-pyrazol-4-yl)pyrazine-2-carboxylate]
MLKL [1]
  Degradation assay (Degradation %) 1 μM: 88.47%
FADD−/− Jurkat cells
  Necroptosis inhibition assay (Rescue %) 1 μM: 43.23%
  Necroptosis inhibition assay (Rescue %) 10 μM: 14.03%
MLKL [2]
  Kd: 4.2 nM

## Nc1ncc(-c2cnn(C3CCN(CCCN4CCN(C(=O)COc5ccc6c(c5)C(=O)N(C5CCC(=O)NC5=O)C6=O)CC4)CC3)c2)nc1C(=O)O[C@@H](C(=O)Nc1cccc(Cl)c1)c1ccccc1 (stereo partly drawn) [TDH-485, (R)-2-((3-chlorophenyl)amino)-2-oxo-1-phenylethyl 3-amino-6-(1-(1-(3-(4-(2-((2-(2,6-dioxopiperidin-3-yl)-1,3-dioxoisoindolin-5-yl)oxy)acetyl)piperazin-1-yl)propyl)piperidin-4-yl)-1H-pyrazol-4-yl)pyrazine-2-carboxylate]
MLKL [1]
  Degradation assay (Degradation %) 1 μM: 87.46%
  Degradation assay (Degradation %) 10 μM: 93.6%
FADD−/− Jurkat cells; FADD−/− Jurkat cells
  Necroptosis inhibition assay (Rescue %) 1 μM: 61.51%
  Necroptosis inhibition assay (Rescue %) 10 μM: 50.03%
MLKL [2]
  Kd: 10 nM

## Nc1ncc(-c2cnn(C3CCN(C(=O)CCC4CCN(C(=O)CNc5cccc6nnn(C7CCC(=O)NC7=O)c(=O)c56)CC4)CC3)c2)nc1C(=O)O[C@@H](C(=O)Nc1ccc(F)cc1)c1ccccc1 (stereo partly drawn) [TDH-433, (R)-2-((4-fluorophenyl)amino)-2-oxo-1-phenylethyl 3-amino-6-(1-(1-(3-(1-((3-(2,6-dioxopiperidin-3-yl)-4-oxo-3,4-dihydrobenzo[d][1,2,3]triazin-5-yl)glycyl)piperidin-4-yl)propanoyl)piperidin-4-yl)-1H-pyrazol-4-yl)pyrazine-2-carboxylate]
MLKL [1]
  Degradation assay (Degradation %) 1 μM: 74.16%
  Degradation assay (Degradation %) 10 μM: 46.20%
FADD−/− Jurkat cells; FADD−/− Jurkat cells
  Necroptosis inhibition assay (Rescue %) 1 μM: 16.00%
  Necroptosis inhibition assay (Rescue %) 10 μM: 11.01%
MLKL [2]
  Kd: 2.1 nM

## Nc1ncc(-c2cnn(C3CCN(CCC4CCN(c5ccc6nnn(C7CCC(=O)NC7=O)c(=O)c6c5)CC4)CC3)c2)nc1C(=O)OC(C(=O)Nc1ccc(F)cc1)c1ccccc1 (centres unmarked) [TDH-295, 2-((4-fluorophenyl)amino)-2-oxo-1-phenylethyl 3-amino-6-(1-(1-(2-(1-(3-(2,6-dioxopiperidin-3-yl)-4-oxo-3,4-dihydrobenzo[d][1,2,3]triazin-6-yl)piperidin-4-yl)ethyl)piperidin-4-yl)-1H-pyrazol-4-yl)pyrazine-2-carboxylate]
MLKL [1]
  Degradation assay (Degradation %) 1 μM: 70.94%
  Degradation assay (Degradation %) 10 μM: 57.99%
FADD−/− Jurkat cells
  Necroptosis inhibition assay (Rescue %) 1 μM: 63.46%
  Necroptosis inhibition assay (Rescue %) 10 μM: 37.73%
MLKL [2]
  Kd: 8.1 nM

## Nc1ncc(-c2cnn(C3CCN(CCOC4CCN(C(=O)Cc5cccc(NC6=CC(=O)N(C7CCC(=O)NC7=O)C6=O)c5)CC4)CC3)c2)nc1C(=O)O[C@@H](C(=O)Nc1ccc(F)cc1)c1ccccc1 (stereo partly drawn) [TDH-496, (R)-2-((4-fluorophenyl)amino)-2-oxo-1-phenylethyl 3-amino-6-(1-(1-(2-((1-(2-(3-((1-(2,6-dioxopiperidin-3-yl)-2,5-dioxo-2,5-dihydro-1H-pyrrol-3-yl)amino)phenyl)acetyl)piperidin-4-yl)oxy)ethyl)piperidin-4-yl)-1H-pyrazol-4-yl)pyrazine-2-carboxylate]
MLKL [1]
  Degradation assay (Degradation %) 1 μM: 87.42%
  Degradation assay (Degradation %) 10 μM: 81.07%
FADD−/− Jurkat cells; FADD−/− Jurkat cells
  Necroptosis inhibition assay (Rescue %) 1 μM: 27.23%
  Necroptosis inhibition assay (Rescue %) 10 μM: 7.85%
MLKL [2]
  Kd: 2.2 nM

## Nc1ncc(-c2cnn(C3CCN(CCCN4CCN(C(=O)COc5ccc6nnn(C7CCC(=O)NC7=O)c(=O)c6c5)CC4)CC3)c2)nc1C(=O)O[C@@H](C(=O)Nc1ccc(F)cc1)c1ccccc1 (stereo partly drawn) [TDH-370, (R)-2-((4-fluorophenyl)amino)-2-oxo-1-phenylethyl 3-amino-6-(1-(1-(3-(4-(2-((3-(2,6-dioxopiperidin-3-yl)-4-oxo-3,4-dihydrobenzo[d][1,2,3]triazin-6-yl)oxy)acetyl)piperazin-1-yl)propyl)piperidin-4-yl)-1H-pyrazol-4-yl)pyrazine-2-carboxylate]
MLKL [1]
  Degradation assay (Degradation %) 1 μM: 91.76%
  Degradation assay (Degradation %) 10 μM: 85.83%
FADD−/− Jurkat cells
  Necroptosis inhibition assay (Rescue %) 1 μM: 52.00%
  Necroptosis inhibition assay (Rescue %) 10 μM: 24.38%
MLKL [2]
  Kd: 0.28 nM

## Nc1ncc(-c2cnn([C@@H]3CCN(CC4CCN(C(=O)COc5ccc6c(c5)C(=O)N(C5CCC(=O)NC5=O)C6=O)CC4)C3)c2)nc1C(=O)O[C@@H](C(=O)Nc1ccc(F)cc1)c1ccccc1 (stereo partly drawn) [TDH-359, (R)-2-((4-fluorophenyl)amino)-2-oxo-1-phenylethyl 3-amino-6-(1-((3R)-1-((1-(2-((2-(2,6-dioxopiperidin-3-yl)-1,3-dioxoisoindolin-5-yl)oxy)acetyl)piperidin-4-yl)methyl)pyrrolidin-3-yl)-1H-pyrazol-4-yl)pyrazine-2-carboxylate]
MLKL [1]
  Degradation assay (Degradation %) 1 μM: 92.98%
  Degradation assay (Degradation %) 10 μM: 85.17%
FADD−/− Jurkat cells; compound 1.1 µM
  Necroptosis inhibition assay (Rescue %) 1.1 μM: 67.68 (1.1 µM) %
FADD−/− Jurkat cells
  Necroptosis inhibition assay (Rescue %) 10 μM: 40.02%
MLKL [2]
  Kd: 1.7 nM

## Nc1ncc(-c2cnn(C3CCN(CC4CCN(C(=O)C5CCN(c6ccc7c(c6)C(=O)N(C6CCC(=O)NC6=O)C7=O)CC5)CC4)CC3)c2)nc1C(=O)O[C@@H](C(=O)Nc1ccc(F)cc1)c1ccccc1 (stereo partly drawn) [TDH-147, (R)-2-((4-fluorophenyl)amino)-2-oxo-1-phenylethyl 3-amino-6-(1-(1-((1-(1-(2-(2,6-dioxopiperidin-3-yl)-1,3-dioxoisoindolin-5-yl)piperidine-4-carbonyl)piperidin-4-yl)methyl)piperidin-4-yl)-1H-pyrazol-4-yl)pyrazine-2-carboxylate]
MLKL [1]
  Degradation assay (Degradation %) 1 μM: 38.91%
  Degradation assay (Degradation %) 10 μM: 60.57%
FADD−/− Jurkat cells
  Necroptosis inhibition assay (Rescue %) 1 μM: 84.3%
  Necroptosis inhibition assay (Rescue %) 10 μM: 45.37%
MLKL [2]
  Kd: 24 nM
